Reference: patent US20070072831A1, “Integrase inhibitor compounds” (GILEAD SCIENCES, INC., priority 2005, published 2007)
Where two headings read alike, the source gives them in different places.

Legend:
HIV-IIIb = assay: Antiviral assay in MT-4 cells infected with HIV-IIIb; type: cell-based; conditions: MT4, 120 h, read-out: EC50 Range MT-4
Description: See: Wolfe, etal J. Virol.
Antiviral Assays in MT2 and MT4 Cells
For the antiviral assay utilizing MT-2 cells, 50 μl of 2× test concentration of 5-fold serially diluted compound in culture medium with 10% FBS was added to each well of a 96-well plate (9 concentrations) in triplicate. MT-2 cells were infected with HIV-IIIb at a multiplicity of infection (m.o.i) of 0.01 for 3 hours. Fifty microliters of infected cell suspension in culture medium with 10% FBS (˜1.5×10^4 cells) was then added to each well containing 50 μl of diluted compound. The plates were then incubated at 37° C. for 5 days. For the antiviral assay utilizing MT-4 cells, 20 μl of 2× test concentration of 5-fold serially diluted compound in culture medium with 10% FBS was added to each well of a 384-well plate (7 concentrations) in triplicate. MT-4 cells were next mixed with HIV-IIIb at an m.o.i. of 0.1 and 20 μl of virus/cell mixture (˜2000 cells) was immediately added to each well containing 20 μl of diluted compound. The plates were then incubated at 37° C. for 5 days. After 5 days of incubation, 100 μl of CellTiter-Glo™ Reagent (catalog # G7571, Promega Biosciences, Inc., Madison, Wis.) was added to each well containing MT-2 cells and 40 μl to each well containing MT-4 cells. Cell lysis was carried out by incubating at room temperature for 10 min and then chemiluminescence was read.

HIV integrase = HIV integrase (Human immunodeficiency virus type 1 group M subtype B, UniProt P04585); assay: biochemical
Description: Representative compounds of the invention were tested for biological activity by methods including anti-HIV assay, measuring inhibition of HIV-integrase strand transfer catalysis, and cytotoxicity.
HIV Integrase Assay (IC50 Determination)
The HIV Integrase assay is carried out in Reacti-Bind High Binding Capacity Streptavidin coated plates (Pierce # 15502) in 100 μl reactions. The wells of the plate are rinsed once with PBS. Each well is then coated at room temperature for 1 h with 100 μl of 0.14 μM Donor DNA with the following sequence:
After coating, the plate was washed twice with PBS. 3′processing of the Donor DNA is started by adding 80 μl of Integrase/buffer mixture (25 mM HEPES, pH 7.3, 12.5 mM DTT, 93.75 mM NaCl, 12.5 mM MgCl2, 1.25% Glycerol, 0.3125 uM integrase) to each well. 3′processing is allowed to proceed for 30 min at 37° C., after which, 10 μl of test compound and 10 μl of 2.5 uM DIG-labeled Target DNA with the following sequence:
are added to each well to allow strand transfer to proceed for 30 min at 37° C. The plate is then washed three times with 2×SSC for 5 min and rinsed once with PBS. For detection of integrated product, 100 μl of a 1/2000 dilution of HRP-conjugated anti-DIG antibody (Pierce #31468) are added to each well and incubated for 1 hour. The plate was then washed three times for 5 min each, with 0.05% Tween-20 in PBS. For signal development and amplification, 100 μl of SuperSignal ELISA Femto Substrate (Pierce #37075) are added to each well. Chemiluminescence (in relative light units) is read immediately at 425 nm in the SPECTRAmax GEMINI Microplate Spectrophotometer using the end point mode at 5 sec per well.
For IC50 determinations, eight concentrations of test compounds in a 1/2.2 dilution series are used.

Row | SMILES | EC50 (HIV-IIIb; MT-4 cells, HIV-IIIb, 5 days) [nM] | IC50 (HIV integrase) [nM] | EC50 (HIV-IIIb) [nM]
1 | CCN(CC)CCS(=O)(=O)N(C)c1c2c(c(O)c3ncccc13)C(=O)N(Cc1ccc(F)cc1)C2 [Compound 161, 2-(diethylamino)-N-(7-(4-fluorobenzyl)-9-hydroxy-8-oxo-7,8-dihydro-6H-pyrrolo[3,4-g]quinolin-5-yl)-N-methylethanesulfonamide] | < 60 | 60 to 1000 | –
2 | CN(c1c2c(c(O)c3ncccc13)C(=O)N(Cc1ccc(F)cc1)C2)S(=O)(=O)CCN1CCCCC1 [Compound 162, N-(7-(4-fluorobenzyl)-9-hydroxy-8-oxo-7,8-dihydro-6H-pyrrolo[3,4-g]quinolin-5-yl)-N-methyl-2-(piperidin-1-yl)ethanesulfonamide] | 60 to 1000 | 60 to 1000 | –
3 | CN(c1c2c(c(O)c3ncccc13)C(=O)N(Cc1ccc(F)cc1)C2)S(=O)(=O)CCN1CCOCC1 [Compound 163, N-(7-(4-fluorobenzyl)-9-hydroxy-8-oxo-7,8-dihydro-6H-pyrrolo[3,4-g]quinolin-5-yl)-N-methyl-2-morpholinoethanesulfonamide] | < 60 | < 60 | –
4 | CN(c1c2c(c(O)c3ncccc13)C(=O)N(Cc1ccc(F)cc1)C2)S(=O)(=O)CCN1CCNCC1 [Compound 164, N-(7-(4-fluorobenzyl)-9-hydroxy-8-oxo-7,8-dihydro-6H-pyrrolo[3,4-g]quinolin-5-yl)-N-methyl-2-(piperazin-1-yl)ethanesulfonamide] | 60 to 1000 | 60 to 1000 | –
5 | CN(C)C(=O)N(C)c1c2c(c(O)c3ncccc13)C(=O)N(Cc1ccc(F)cc1)C2 [Compound 171, 1-(7-(4-fluorobenzyl)-9-hydroxy-8-oxo-7,8-dihydro-6H-pyrrolo[3,4-g]quinolin-5-yl)-1,3,3-trimethylurea] | < 60 | < 60 | –
6 | CN(C(=O)N1CCOCC1)c1c2c(c(O)c3ncccc13)C(=O)N(Cc1ccc(F)cc1)C2 [Compound 173, N-(7-(4-fluorobenzyl)-9-hydroxy-8-oxo-7,8-dihydro-6H-pyrrolo[3,4-g]quinolin-5-yl)-N-methylmorpholine-4-carboxamide] | 60 to 1000 | 60 to 1000 | –
7 | CN(c1c2c(c(O)c3ncccc13)C(=O)N(Cc1cccc(Cl)c1)C2)S(C)(=O)=O [Compound 175, N-(7-(3-chlorobenzyl)-9-hydroxy-8-oxo-7,8-dihydro-6H-pyrrolo[3,4-g]quinolin-5-yl)-N-methylmethanesulfonamide] | < 60 | 60 to 1000 | –
8 | CN(c1c2c(c(O)c3ncccc13)C(=O)N(Cc1cccc(Cl)c1F)C2)S(C)(=O)=O [Compound 177, N-(7-(3-chloro-2-fluorobenzyl)-9-hydroxy-8-oxo-7,8-dihydro-6H-pyrrolo[3,4-g]quinolin-5-yl)-N-methylmethanesulfonamide] | < 60 | 60 to 1000 | –
9 | CN(c1c2c(c(O)c3ncccc13)C(=O)N(Cc1ccc(F)c(F)c1)C2)S(C)(=O)=O [Compound 179, N-(7-(3,4-difluorobenzyl)-9-hydroxy-8-oxo-7,8-dihydro-6H-pyrrolo[3,4-g]quinolin-5-yl)-N-methylmethanesulfonamide] | < 60 | < 60 | –
10 | CN(c1c2c(c(O)c3ncccc13)C(=O)N(Cc1ccc(F)c(Cl)c1)C2)S(C)(=O)=O [Compound 181, N-(7-(3-chloro-4-fluorobenzyl)-9-hydroxy-8-oxo-7,8-dihydro-6H-pyrrolo[3,4-g]quinolin-5-yl)-N-methylmethanesulfonamide] | < 60 | < 60 | –
11 | CN(c1c2c(c(O)c3ncccc13)C(=O)N(Cc1ccc(Cl)cc1)C2)S(C)(=O)=O [Compound 183, N-(7-(4-chlorobenzyl)-9-hydroxy-8-oxo-7,8-dihydro-6H-pyrrolo[3,4-g]quinolin-5-yl)-N-methylmethanesulfonamide] | < 60 | 60 to 1000 | –
12 | CN(c1c2c(c(O)c3ncccc13)C(=O)N(Cc1c(F)ccc(Cl)c1F)C2)S(C)(=O)=O [Compound 185, N-(7-(3-chloro-2,6-difluorobenzyl)-9-hydroxy-8-oxo-7,8-dihydro-6H-pyrrolo[3,4-g]quinolin-5-yl)-N-methylmethanesulfonamide] | < 60 | 60 to 1000 | –
13 | CN(c1c2c(c(O)c3ncccc13)C(=O)N(Cc1c(F)cc(F)cc1F)C2)S(C)(=O)=O [Compound 187, N-(7-(2,4,6-trifluorobenzyl)-9-hydroxy-8-oxo-7,8-dihydro-6H-pyrrolo[3,4-g]quinolin-5-yl)-N-methylmethanesulfonamide] | < 60 | 60 to 1000 | –
14 | CN(c1c2c(c(O)c3ncccc13)C(=O)N(Cc1ccc(Cl)cc1F)C2)S(C)(=O)=O [Compound 189, N-(7-(4-chloro-2-fluorobenzyl)-9-hydroxy-8-oxo-7,8-dihydro-6H-pyrrolo[3,4-g]quinolin-5-yl)-N-methylmethanesulfonamide] | < 60 | 60 to 1000 | –
15 | CN(c1c2c(c(O)c3ncccc13)C(=O)N(Cc1cc(F)ccc1F)C2)S(C)(=O)=O [Compound 191, N-(7-(2,5-difluorobenzyl)-9-hydroxy-8-oxo-7,8-dihydro-6H-pyrrolo[3,4-g]quinolin-5-yl)-N-methylmethanesulfonamide] | < 60 | 60 to 1000 | –
16 | CN(c1c2c(c(O)c3ncccc13)C(=O)N(Cc1cc(Cl)cc(Cl)c1)C2)S(C)(=O)=O [Compound 193, N-(7-(3,5-dichlorobenzyl)-9-hydroxy-8-oxo-7,8-dihydro-6H-pyrrolo[3,4-g]quinolin-5-yl)-N-methylmethanesulfonamide] | < 60 | 60 to 1000 | –
17 | CN(c1c2c(c(O)c3ncccc13)C(=O)N(Cc1c(F)cccc1F)C2)S(C)(=O)=O [Compound 195, N-(7-(2,6-difluorobenzyl)-9-hydroxy-8-oxo-7,8-dihydro-6H-pyrrolo[3,4-g]quinolin-5-yl)-N-methylmethanesulfonamide] | 60 to 1000 | 60 to 1000 | –
18 | CN(c1c2c(c(O)c3ncccc13)C(=O)N(Cc1ccc(Cl)c(Cl)c1)C2)S(C)(=O)=O [Compound 197, N-(7-(3,4-dichlorobenzyl)-9-hydroxy-8-oxo-7,8-dihydro-6H-pyrrolo[3,4-g]quinolin-5-yl)-N-methylmethanesulfonamide] | < 60 | 60 to 1000 | –
19 | CN(c1c2c(c(O)c3ncccc13)C(=O)N(Cc1ccc(F)c(Cl)c1F)C2)S(C)(=O)=O [Compound 199, N-(7-(3-chloro-2,4-difluorobenzyl)-9-hydroxy-8-oxo-7,8-dihydro-6H-pyrrolo[3,4-g]quinolin-5-yl)-N-methylmethanesulfonamide] | < 60 | 60 to 1000 | –
20 | CN(c1c2c(c(O)c3ncccc13)C(=O)N(Cc1cc(Cl)c(F)cc1F)C2)S(C)(=O)=O [Compound 204, N-(7-(5-chloro-2,4-difluorobenzyl)-9-hydroxy-8-oxo-7,8-dihydro-6H-pyrrolo[3,4-g]quinolin-5-yl)-N-methylmethanesulfonamide] | < 60 | < 60 | –
21 | COc1cc(F)ccc1CN1Cc2c(c(O)c3ncccc3c2N(C)S(C)(=O)=O)C1=O [Compound 210, N-(7-(4-fluoro-2-methoxybenzyl)-9-hydroxy-8-oxo-7,8-dihydro-6H-pyrrolo[3,4-g]quinolin-5-yl)-N-methylmethanesulfonamide] | < 60 | 60 to 1000 | –
22 | CN(c1c2c(c(O)c3ncccc13)C(=O)N(Cc1cc(Cl)ccc1F)C2)S(C)(=O)=O [Compound 211, N-(7-(5-chloro-2-fluorobenzyl)-9-hydroxy-8-oxo-7,8-dihydro-6H-pyrrolo[3,4-g]quinolin-5-yl)-N-methylmethanesulfonamide] | < 60 | 60 to 1000 | –
23 | O=C1c2c(c(N3CCNS3(=O)=O)c3cccnc3c2O)CN1Cc1ccc(F)cc1 [Compound 214] | < 60 | < 60 | –
24 | O=C1c2c(c(N3CCCNS3(=O)=O)c3cccnc3c2O)CN1Cc1ccc(F)cc1 [Compound 215] | < 60 | 60 to 1000 | –
25 | CN1CCCN(c2c3c(c(O)c4ncccc24)C(=O)N(Cc2ccc(F)cc2)C3)S1(=O)=O [Compound 218] | < 60 | < 60 | –
26 | O=C1c2c(c(N3CCNC3=O)c3cccnc3c2O)CN1Cc1ccc(F)cc1 [Compound 221, 7-(4-fluorobenzyl)-9-hydroxy-5-(2-oxoimidazolidin-1-yl)-6,7-dihydropyrrolo[3,4-g]quinolin-8-one] | < 60 | < 60 | –
27 | O=C1c2c(c(N3CCCNC3=O)c3cccnc3c2O)CN1Cc1ccc(F)cc1 [Compound 222, 7-(4-fluorobenzyl)-9-hydroxy-5-(2-oxo-tetrahydropyrimidin-1(2H)-yl)-6,7-dihydropyrrolo[3,4-g]quinolin-8-one] | < 60 | 60 to 1000 | –
28 | CN1CCCN(c2c3c(c(O)c4ncccc24)C(=O)N(Cc2ccc(F)cc2)C3)C1=O [Compound 224, 7-(4-fluorobenzyl)-9-hydroxy-5-(3-methyl-2-oxo-tetrahydropyrimidin-1(2H)-yl)-6,7-dihydropyrrolo[3,4-g]quinolin-8-one] | – | < 60 | 60 to 1000
